Legend:
[1] = system: neurons in the posterior horn surface of the spinal cord; test: In vivo extracellular recording from the posterior horn surface of the spinal cord in FADS mice (spontaneous firing); parameters: species or system mouse (FADS); settings: 53.7 μmol/kg i.p.; FIG. 3
Procedure: In Vivo Extracellular Recording from the Posterior Horn Surface of the Spinal Cord in FADS Mice
FADS mice were administered intraperitoneally with 1.5 g/kg of urethane and anesthetized, followed by dorsal lumbar laminectomy. The first to sixth lumbar vertebrae were exposed, and each mouse was set on a stereotaxic apparatus. Under a microscope, the dural, arachnoidal and pial membranes were removed, and the spinal cord surface was warmed at 36±1 °C, followed by perfusion at 15 to 20 mL/min with an artificial cerebrospinal fluid (composition: NaCl (117 mM), KCl (3.6 mM), CaCl2) (2.5 mM), MgCl2 (1.2 mM), NaH2PO4 (1.2 mM), glucose (11 mM), NaHCO3 (25 mM)) saturated with 95% 02 to 5% CO2. Into the exposed spinal cord, a tungsten electrode (tip diameter: […], tip impedance: 9 to 12 MΩ) was inserted (latero-medial), and records were obtained from neurons in the posterior horn surface of the spinal cord.
CP4715 was dissolved at 89.5 mM in a diluent (physiological saline containing 50% DMSO and 89.5 mM hydrochloric acid), from which an amount corresponding to 53.7 μmol/kg per mouse was then taken and diluted with 0.3 mL of physiological saline, and then administered intraperitoneally (i.p.). 0.3 mL of physiological saline containing an equal amount of the diluent as calculated based on the body weight was administered as a control. When recorded from the spinal cord posterior horn of the FADS mice, neurons with spontaneous firing could be recorded. When the above control solution was first administered intraperitoneally, there was little change in the frequency of spontaneous firing during 30 minutes after administration.

[2] = system: scratching behaviors in FADS mice; test: Scratching behaviors in FADS mice upon single systemic administration of αvβ3 integrin inhibitors; format: in vivo, mouse (FADS, Nestin-cre/Ikk2ff)
Description: Nestin-cre transgenic mice were crossed with IKK2^ff mice to prepare Nestin-cre/Ikk2^ff mice specifically lacking IKK2 in their facial skin fibroblasts (Nunomura S, et al. J Invest Dermatol. 139:1274-1283, 2019). These mice inevitably develop atopic dermatitis-like rash limited to the face and intense itchy symptoms, and were therefore designated as Facial Atopic Dermatitis with Scratching (FADS) mice. […] For evaluation of the prophylactic or therapeutic agent of the present invention, FADS mice at 3 to 4 weeks of age or older were used because of showing spontaneous scratching behaviors. It should be noted that in this Example section, the above compound of formula (I) (more particularly “CP4715”) was used as the prophylactic or therapeutic agent of the present invention.
FADS mice were acclimated for 20 minutes to the environment of a recording cage, and then recorded with a video camera. The recorded videos were replayed, and scratching behaviors were counted assuming that hind paw scratching to the face and the subsequent movement of toe licking or paw lowering to the ground were regarded as one cycle of scratching behavior.
Prior to the administration of the above αvβ3 integrin inhibitors, FADS mice were recorded for 60 minutes with a video camera and then allowed to rest for 15 minutes. The compounds except for GLPG-0187 were each dissolved at 89.5 mM in a diluent (physiological saline containing 50% DMSO and 89.5 mM HCL), from which an amount corresponding to 53.7 μmol/kg per mouse was then taken and diluted with 0.3 mL of PBS, and then administered intraperitoneally. […] Mice administered with 0.3 mL of PBS containing an equal amount of the diluent as calculated based on the body weight were used as a control group.
The mice were recorded for 60 minutes with a video camera immediately after administration of the above αvβ3 integrin inhibitors. The number of scratchings before administration was used as a baseline, and % change from the baseline after administration was calculated for each compound. For statistical analysis, paired t-test was used. A P-value of less than 0.05 was considered to be statistically significant. The effect of an inhibitor whose mean change from the baseline was −65% or more at a P-value of less than 0.01 was expressed as “++”; the effect of an inhibitor whose mean change from the baseline was −60% or less at a P-value of less than 0.05 was expressed as “+”; and the effect of an inhibitor whose mean change from the baseline was −60% or less at a P-value of 0.05 or higher was expressed as “−.”

COc1cc(C(=O)NC[C@H](NS(=O)(=O)c2ccccc2)C(=O)O)ccc1N1CCC(NC2=NCCCN2)CC1 [CP4715, (S)-3-(3-methoxy-4-(4-((1,4,5,6-tetrahydropyrimidin-2-yl)amino)piperidin-1-yl)benzamido)-2-(phenylsulfonamido)propanoic acid]
time after administration at which firing returned to the initial frequency [1]: 60 min | time after administration at which the frequency of firing started to decrease [1]: 20 min | time after administration at which the frequency of firing was most strongly suppressed [1]: 40 min | % Change from baseline in the number of scratchings (mean ± standard error) ([2]; 53.7 μmol/kg i.p., single, 60 minutes after administration vs before administration): −68.0 ± 14.0% | grade of effect on % change from the baseline in the number of scratchings ([2]; single i.p., 53.7 μmol/kg (GLPG-0187 5.37 μmol/kg), paired t-test): ++ (mean change from the baseline was −65% or more at a P-value of less than 0.01)

Reference: patent US20260355192A1, “PROPHYLACTIC OR THERAPEUTIC AGENT FOR PERIOSTIN-MEDIATED DISEASE AND PRURITUS ASSOCIATED THEREWITH” (SAGA UNIVERSITY, priority 2022, published 2026)
